Here are results for eleven compounds from patent US20140023611A1 (priority 2010, published 2014).

What is called AUC is concentration integrated over time. The Cmax is the peak of the concentration-time curve.

Data set [1] can be described thus: Determination of compound Cmax and AUC after oral gavage (plasma LC-MS/MS). It is filed as in vivo, Sprague-Dawley rats. As to conditions: Sprague-Dawley, rat, plasma, po, Structure (I) examples, Table 15, actual oral dose 3-15 mg/kg, plasma 0.5-4 h. Put shortly:
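Sprague-Dawley rats dosed by oral gavage at nominal 2.5 or 10 mg/kg; blood drawn at 0.5, 1, 2 and 4 h into K2EDTA. Plasma protein-precipitated with acetonitrile plus internal standard and analysed by LC-MS/MS against a plasma standard curve to derive Cmax and AUC.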

Data set [2] addresses T1, rat NaP2b (SLC34A2) (Rattus norvegicus, UniProt Q9JJ09).
T1 construct: host or cells: HEK293
T1 sequence (Q9JJ09 1-695): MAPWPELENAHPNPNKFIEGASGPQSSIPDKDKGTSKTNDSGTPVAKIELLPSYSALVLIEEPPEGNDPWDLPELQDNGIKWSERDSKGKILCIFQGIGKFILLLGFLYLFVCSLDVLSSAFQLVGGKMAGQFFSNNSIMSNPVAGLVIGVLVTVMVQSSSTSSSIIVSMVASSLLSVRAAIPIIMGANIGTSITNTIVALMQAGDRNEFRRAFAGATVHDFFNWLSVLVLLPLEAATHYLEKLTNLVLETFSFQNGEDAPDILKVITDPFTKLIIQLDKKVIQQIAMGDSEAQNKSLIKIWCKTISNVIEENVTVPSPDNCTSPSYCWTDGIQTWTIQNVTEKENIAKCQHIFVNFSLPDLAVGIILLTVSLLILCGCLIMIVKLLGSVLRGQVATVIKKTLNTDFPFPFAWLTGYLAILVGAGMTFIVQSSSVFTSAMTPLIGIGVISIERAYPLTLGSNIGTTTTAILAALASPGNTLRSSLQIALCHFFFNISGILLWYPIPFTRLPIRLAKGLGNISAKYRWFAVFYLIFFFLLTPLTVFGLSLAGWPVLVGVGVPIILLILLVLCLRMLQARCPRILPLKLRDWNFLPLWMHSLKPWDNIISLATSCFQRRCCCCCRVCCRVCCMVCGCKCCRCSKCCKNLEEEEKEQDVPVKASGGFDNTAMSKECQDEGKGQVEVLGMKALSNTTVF
Kind of data set: Inhibition of NaP2b-mediated Pi (33P) uptake in transfected HEK293 cells, rat NaP2b. It is filed as cell-based. The conditions noted are these: 33P Pi uptake, 0.1 mM phosphate, value given as pIC50 range. The procedure, abridged:
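HEK293 cells were transiently transfected with NaP2b cDNA using Lipofectamine and grown near confluence. Compounds were tested at twelve concentrations from 0.1 nM to 30 uM in duplicate, and 33P-phosphate uptake was counted by scintillation after lysis. Results are expressed as pIC50.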

Data set [3] in a line: Stability of compounds in simulated gastric fluid (SGF). It is filed as in vitro ADME. As to conditions: simulated gastric fluid (3 mg/mL pepsin), incubation time 6 hr, relative to t=0. The procedure, abridged: (§1)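 Compounds at […] were incubated 3 or 6 hr in USP simulated gastric fluid with 3 mg/mL pepsin or simulated intestinal fluid with 3 mg/mL pancreatin. Remaining compound was quantified by HPLC-UV or HPLC-MS peak area % and reported as percent of the t=0 level in the same medium.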

Data set [4] in a line: Stability of compounds in simulated intestinal fluid (SIF). It is filed as in vitro ADME. The conditions noted are these: simulated intestinal fluid (3 mg/mL pancreatin), incubation time 6 hr, relative to t=0. The procedure, abridged:
as §1

Data set [5] deals with T2, human NaP2b (SLC34A2) (Homo sapiens, UniProt O95436).
T2 construct: host or cells: HEK293
T2 sequence (O95436 1-690): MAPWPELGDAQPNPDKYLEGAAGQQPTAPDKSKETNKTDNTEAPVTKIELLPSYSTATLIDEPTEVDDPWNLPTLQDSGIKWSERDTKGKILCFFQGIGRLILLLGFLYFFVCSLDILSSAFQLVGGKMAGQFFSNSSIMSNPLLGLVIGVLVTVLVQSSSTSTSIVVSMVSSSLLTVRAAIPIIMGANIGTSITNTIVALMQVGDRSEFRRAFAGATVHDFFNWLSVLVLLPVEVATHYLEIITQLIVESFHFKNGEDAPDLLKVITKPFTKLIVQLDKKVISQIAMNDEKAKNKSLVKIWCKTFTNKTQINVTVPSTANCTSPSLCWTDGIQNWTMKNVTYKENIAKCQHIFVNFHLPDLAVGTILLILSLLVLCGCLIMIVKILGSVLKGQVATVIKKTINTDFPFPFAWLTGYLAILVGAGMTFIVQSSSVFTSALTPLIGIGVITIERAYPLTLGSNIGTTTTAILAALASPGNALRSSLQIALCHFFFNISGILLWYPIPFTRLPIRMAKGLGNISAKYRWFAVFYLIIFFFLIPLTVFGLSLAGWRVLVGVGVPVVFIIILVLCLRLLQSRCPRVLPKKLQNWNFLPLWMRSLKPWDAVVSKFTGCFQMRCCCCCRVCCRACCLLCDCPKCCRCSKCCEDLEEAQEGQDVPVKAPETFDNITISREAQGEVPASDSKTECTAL
Kind of data set: Inhibition of NaP2b-mediated Pi (33P) uptake in transfected HEK293 cells, human NaP2b. It is filed as cell-based. As to conditions: for IC50: read-out: pIC50 range for human NaP2b (converted). Put shortly: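 HEK293 cells transiently transfected with human NaP2b (Thr inserted after residue 37, N39D), endogenous PiT transport pharmacologically silenced. Sodium or choline buffer, pH 7.4, with 100 uM KH2PO4, 33P orthophosphate and compound (0.1 nM–30 uM, twelve concentrations, duplicate). 3-30 min at room temperature, scintillation counting, pIC50 derived.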

In data set [1], `CCN(CC)c1ccc(NC(=O)c2cccc(C(=O)N(C)CCN(C)CCOCCOCCOCCNC(=O)OC(C)(C)C)c2)c(-c2cc(C(=O)N[C@H]3CCCc4ccccc43)ccn2)c1` [Example 339, (S)-tert-Butyl 1-(3-(4-(diethylamino)-2-(4-(1,2,3,4-tetrahydronaphthalen-1-ylcarbamoyl)pyridin-2-yl)phenylcarbamoyl)phenyl)-2,5-dimethyl-1-oxo-8,11,14-trioxa-2,5-diazahexadecan-16-ylcarbamate] had an AUC of under 30 ng·h/mL and a Cmax of under 10 ng/mL. The compound also had an IC50 in data set [2] of under 1000 nM. In addition, the “% remaining, SGF” value in data set [3] is listed as under 20%. For the same compound, the “% remaining, SIF” value in data set [4] is over 80%. In data set [5], the IC50 was under 1000 nM.

In data set [1], `CN(CCCN1CCOCC1)C(=O)c1cccc(C(=O)Nc2ccc(N3CCCCC3)cc2-c2cc(C(=O)N[C@H]3CCCc4ccccc43)ccn2)c1` [Example 126, (S)—N1-methyl-N1-(3-morpholinopropyl)-N3-(4-(piperidin-1-yl)-2-(4-(1,2,3,4-tetrahydronaphthalen-1-ylcarbamoyl)pyridin-2-yl)phenyl)isophthalamide] registered an AUC of under 30 ng·h/mL and a Cmax of under 10 ng/mL. The same compound gave an IC50 in data set [2] of under 1000 nM. Further, the “% remaining, SGF” value in data set [3] is over 80%. Moreover, in data set [4], the “% remaining, SIF” value is over 80%. The IC50 in data set [5] is 1000 to 7940 nM.

Regarding `COCCNC(=O)[C@H]1CCCN(C(=O)c2cccc(C(=O)Nc3ccc(N4CCCCC4)cc3-c3cc(C(=O)N[C@H]4CCCc5ccccc54)ccn3)c2)C1` [Example 254, 2-(2-(3-((S)-3-(2-methoxyethylcarbamoyl)piperidine-1-carbonyl)benzamido)-5-(piperidin-1-yl)phenyl)-N—((S)-1,2,3,4-tetrahydronaphthalen-1-yl)isonicotinamide], the AUC in data set [1] was under 10 ng·h/mL. In data set [1], this compound yielded a Cmax of under 10 ng/mL. For the same compound, the IC50 in data set [2] and in data set [5] was under 1000 nM each time. Further, the “% remaining, SGF” value in data set [3] is on record as over 80%. Moreover, in data set [4], the “% remaining, SIF” value is reported as over 80%.

`CCN(CC)c1ccc(NC(=O)c2cccc(COCCOCCOCCOCCOCCOCCOC(=O)N(C)CCN3CCOCC3)c2)c(-c2cc(C(=O)NCc3cccc(C(F)(F)F)c3)ccn2)c1` [Example 170, 1-(3-(4-(diethylamino)-2-(4-(3-(trifluoromethyl)benzylcarbamoyl)pyridin-2-yl)phenylcarbamoyl)phenyl)-2,5,8,11,14,17-hexaoxanonadecan-19-yl methyl(2-morpholinoethyl)carbamate]: the IC50 in data set [2] was 1000 to 7940 nM; in data set [5], under 1000 nM. Moreover, in data set [3], the “% remaining, SGF” value is over 80%. Also, in data set [4], the “% remaining, SIF” value is given as 60-80%.

Consider `CCN(CC)c1ccc(NC(=O)c2cccc(CCCOCCOCCOCCOCCC(=O)NC(CO)(CO)CO)c2)c(-c2cc(C(=O)NCc3cccc(C(F)(F)F)c3)ccn2)c1` [Example 281], for which, in data set [1], the AUC was under 10 ng·h/mL. In data set [1], this compound returned a Cmax of under 10 ng/mL. In addition, the IC50 in data set [2] and in data set [5] was under 1000 nM in each case. Besides, in data set [3], the “% remaining, SGF” value is on record as over 80%. Also, the “% remaining, SIF” value in data set [4] was 20-40%.

In the case of `COCCOCCOCCOCCOCCOCCOCCOCCNC(=O)CCOCCOCCOCCOCCCc1cccc(C(=O)Nc2ccc(N3CCCCC3)cc2-c2cc(C(=O)NCc3cccc(C(F)(F)F)c3)ccn2)c1` [Example 275], the IC50 in data set [2] and in data set [5] was 1000 to 7940 nM throughout. Moreover, in data set [3], the “% remaining, SGF” value is listed as over 80%. Further, the “% remaining, SIF” value in data set [4] is over 80%.

In the case of `CCN(CC)c1ccc(NC(=O)c2cccc(COCCOCCOCCOCCOCCOCCOC(=O)N(CCO)CCO)c2)c(-c2cc(C(=O)NCc3cccc(C(F)(F)F)c3)ccn2)c1` [Example 172, 1-(3-(4-(diethylamino)-2-(4-(3-(trifluoromethyl)benzylcarbamoyl)pyridin-2-yl)phenylcarbamoyl)phenyl)-2,5,8,11,14,17-hexaoxanonadecan-19-yl bis(2-hydroxyethyl)carbamate], the IC50 is 1000 to 7940 nM in data set [2] and under 1000 nM in data set [5]. In data set [3], the “% remaining, SGF” value is over 80%. The “% remaining, SIF” value in data set [4] is recorded as over 80%.

Regarding `CCN(CC)c1ccc(NC(=O)c2cccc(COCCOCCOCCOCCOCCOCCOC(=O)N3CCC(CCOCCO)CC3)c2)c(-c2cc(C(=O)NCc3cccc(C(F)(F)F)c3)ccn2)c1` [Example 171, 1-(3-(4-(diethylamino)-2-(4-(3-(trifluoromethyl)benzylcarbamoyl)pyridin-2-yl)phenylcarbamoyl)phenyl)-2,5,8,11,14,17-hexaoxanonadecan-19-yl 4-(2-(2-hydroxyethoxy)ethyl)piperidine-1-carboxylate], the IC50 in data set [2] is 1000 to 7940 nM; in data set [5] it was under 1000 nM. In addition, the “% remaining, SGF” value in data set [3] is reported as over 80%. In data set [4], the “% remaining, SIF” value is recorded as over 80%.

For the compound “1-(3-(4-(diethylamino)-2-(4-(3-(trifluoromethyl)benzylcarbamoyl)pyridin-2-yl)phenylcarbamoyl)phenyl)-2,5,8,11,14,17-hexaoxanonadecan-19-yl 2,5,8,11,14,17,20-heptaoxadocosan-22-ylcarbamate [Example 174]”, in data set [2], the “pIC50 range for rat Nap2b” value is given as 5.1-6.0. Besides, in data set [3], the “% remaining, SGF” value was over 80%. Also, the “% remaining, SIF” value in data set [4] is over 80%. For the same compound, in data set [5] (33P Pi uptake, transfected HEK293 cells, 0.1 mM phosphate, value given as pIC50 range), the “pIC50 range for human NaP2b” value is over 6.0.

Take `CCN(CC)c1ccc(NC(=O)c2cccc(C(=O)N(C)CCN(CCOC)CCOCCOCCOCCOCCOCCOCCOC)c2)c(-c2cc(C(=O)N[C@H]3CCCc4ccccc43)ccn2)c1` [Example 328, (S)—N1-(4-(diethylamino)-2-(4-(1,2,3,4-tetrahydronaphthalen-1-ylcarbamoyl)pyridin-2-yl)phenyl)-N3-(23-(2-methoxyethyl)-2,5,8,11,14,17,20-heptaoxa-23-azapentacosan-25-yl)-N3-methylisophthalamide]: the IC50 in data set [2] and in data set [5] was 1000 to 7940 nM in each case. Also, the “% remaining, SGF” value in data set [3] is reported as over 80%. For the same compound, the “% remaining, SIF” value in data set [4] was over 80%.

In the case of `CCN(CC)c1ccc(NC(=O)c2cccc(COCCOCCOCCOCCOCCOCCOC(=O)NCCN3CCOCC3)c2)c(-c2cc(C(=O)NCc3cccc(C(F)(F)F)c3)ccn2)c1` [Example 169, 1-(3-(4-(diethylamino)-2-(4-(3-(trifluoromethyl)benzylcarbamoyl)pyridin-2-yl)phenylcarbamoyl)phenyl)-2,5,8,11,14,17-hexaoxanonadecan-19-yl 2-morpholinoethylcarbamate], the IC50 in data set [2] and in data set [5] was under 1000 nM each time. Further, the “% remaining, SGF” value in data set [3] is given as over 80%. Also, the “% remaining, SIF” value in data set [4] is given as 60-80%.
